Patent publication US20240270821A1, “GIP/GLP1/GCG TRI-RECEPTOR AGONISTS AND USES THEREOF” (priority 2023, published 2024)
Starred links: 1 amine or outer side, 2 acyl side, 3 side chain; linkers in the order of their positions; H or OH if unused. Non-standard residues stand in square brackets, D forms with d. Groups on a side chain read outwards from the residue. No end group written: not given here. *: point of attachment. C20 diacid = O=C(O)CCCCCCCCCCCCCCCCCCC(=O)*; C18 diacid = O=C(O)CCCCCCCCCCCCCCCCC(=O)*; αMePhe(2-F) = C[C@](N)(Cc1ccccc1F)C(=O)O; γGlu = O=C(O)[C@H](CCC(=O)[*:2])N[*:1]; αMe4Pal = C[C@](N)(Cc1ccncc1)C(=O)O; αMeY = C[C@](N)(Cc1ccc(O)cc1)C(=O)O; αMeF = C[C@](N)(Cc1ccccc1)C(=O)O; 4Pal = N[C@@H](Cc1ccncc1)C(=O)O; αMeL = CC(C)C[C@](C)(N)C(=O)O; αMeS = C[C@](N)(CO)C(=O)O; Iva = CC[C@](C)(N)C(=O)O; Orn = NCCC[C@H](N)C(=O)O; AEEA = NCCOCCOCC(=O)O; Aib = CC(C)(N)C(=O)O

Experiments:
Type in all cases: cell-based
human GcgR = human GcgR (Homo sapiens, UniProt P47871); assay: Functional cAMP activity in the presence of 1% HSA; settings: read-out: cAMP Rel EC50, hGcgR
Sequence of human GcgR (P47871 26-477): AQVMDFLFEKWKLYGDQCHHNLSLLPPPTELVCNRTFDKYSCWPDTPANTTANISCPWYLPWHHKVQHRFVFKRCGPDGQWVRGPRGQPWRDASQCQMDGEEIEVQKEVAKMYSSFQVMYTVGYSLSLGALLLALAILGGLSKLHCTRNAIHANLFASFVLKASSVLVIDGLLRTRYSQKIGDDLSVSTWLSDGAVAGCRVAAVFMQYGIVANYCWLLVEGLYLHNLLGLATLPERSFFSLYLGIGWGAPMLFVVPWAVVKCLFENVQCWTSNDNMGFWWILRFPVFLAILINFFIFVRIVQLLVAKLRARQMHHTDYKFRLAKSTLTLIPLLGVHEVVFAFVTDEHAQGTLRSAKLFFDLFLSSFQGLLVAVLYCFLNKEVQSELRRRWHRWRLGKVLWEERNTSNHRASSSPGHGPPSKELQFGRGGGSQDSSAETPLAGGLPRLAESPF

hGcgR = hGcgR (Homo sapiens, UniProt P47871); assay: Functional cAMP activation in the presence of 0.1% casein (no HSA); settings: in the presence of 0.1% casein (no HSA); geometric mean; read-out: Relative cAMP EC50, hGcgR;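 also: intracellular cAMP rise after 30 min at 37 °C, read by HTRF against a cAMP standard curve, scaled from buffer only (0%) to maximal control ligand response (100%)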
Sequence of hGcgR (P47871 26-477): as above

hGLP-1R [1] = molecular target: T1, hGLP-1R (Homo sapiens, UniProt P43220); assay: as above; settings: in the presence of 0.1% casein (no HSA); geometric mean; read-out: Relative cAMP EC50, hGLP-1R;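 also: intracellular cAMP rise after 30 min at 37 °C read by HTRF, normalized between buffer only (0%) and maximal control ligand (100%), four-parameter variable-slope fit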
T1 sequence (P43220 24-463): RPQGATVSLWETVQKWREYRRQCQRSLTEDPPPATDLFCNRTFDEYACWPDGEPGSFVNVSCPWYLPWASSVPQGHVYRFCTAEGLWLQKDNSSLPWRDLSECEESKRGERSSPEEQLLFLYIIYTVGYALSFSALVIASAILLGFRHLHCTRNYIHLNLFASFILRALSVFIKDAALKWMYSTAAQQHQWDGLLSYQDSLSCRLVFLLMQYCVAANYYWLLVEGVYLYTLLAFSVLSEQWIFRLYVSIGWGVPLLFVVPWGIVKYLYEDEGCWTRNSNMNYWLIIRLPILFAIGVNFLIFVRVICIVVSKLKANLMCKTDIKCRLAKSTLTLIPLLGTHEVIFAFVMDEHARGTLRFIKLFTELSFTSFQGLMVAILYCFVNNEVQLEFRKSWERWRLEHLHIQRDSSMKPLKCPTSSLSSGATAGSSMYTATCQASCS

hGIPR [2] = molecular target: T2, hGIPR (Homo sapiens, UniProt P48546); assay: Functional cAMP activity in the presence of 1% HSA; settings: read-out: cAMP Rel EC50, hGIPR
T2 sequence (P48546 22-466): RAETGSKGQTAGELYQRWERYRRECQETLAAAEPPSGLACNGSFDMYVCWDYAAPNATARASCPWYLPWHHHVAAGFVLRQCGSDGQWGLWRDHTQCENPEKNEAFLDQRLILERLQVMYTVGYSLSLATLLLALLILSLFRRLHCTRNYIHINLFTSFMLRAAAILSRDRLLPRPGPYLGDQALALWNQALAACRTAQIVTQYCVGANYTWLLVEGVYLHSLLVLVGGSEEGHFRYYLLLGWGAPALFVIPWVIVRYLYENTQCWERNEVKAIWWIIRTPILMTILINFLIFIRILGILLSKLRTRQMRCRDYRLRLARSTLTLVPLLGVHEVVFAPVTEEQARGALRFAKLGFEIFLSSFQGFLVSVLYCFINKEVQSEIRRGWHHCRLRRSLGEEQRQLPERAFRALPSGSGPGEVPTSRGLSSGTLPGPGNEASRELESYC

hGIPR [3] = molecular target: T2, hGIPR; assay: Functional cAMP activation in the presence of 0.1% casein (no HSA); settings: in the presence of 0.1% casein (no HSA); geometric mean; read-out: Relative cAMP EC50, hGIPR;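 as to Relative cAMP EC50, hGIPR: intracellular cAMP rise after 30 min at 37 °C read by HTRF against a standard curve, scaled between buffer alone (0%) and top control ligand concentration (100%), four-parameter fit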;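 as to Relative cAMP EC50, hGLP-1R: intracellular cAMP rise after 30 min at 37 °C read by HTRF, normalized between buffer only (0%) and maximal control ligand (100%), four-parameter variable-slope fit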
hGLP-1R [4] = molecular target: T1, hGLP-1R; assay: Functional cAMP activity in the presence of 1% HSA; settings: read-out: cAMP Rel EC50, hGLP-1R

Y[Aib]QGTFTSD[4Pal]SR[αMeL]LDKK([γGlu-γGlu-C18 diacid])AQ[αMe4Pal]AFIE[αMe4Pal]LIEGGPSSGAPPPSGSEE-NH2 [Example 959]
EC50 (human GcgR): 316 nM
EC50 (hGcgR): 2.61 nM
EC50 (hGLP-1R [1]): 5.06 nM
EC50 (hGIPR [2]): 24.5 nM
EC50 (hGIPR [3]): 0.217 nM
EC50 (hGLP-1R [4]): 503 nM

Y[Aib]QGTFTSD[4Pal]S[Orn][αMeL]LDKK([γGlu-γGlu-C18 diacid])AQ[Aib]AFIE[αMeY]LLEGGPSSGAPPPSGSEE-NH2 [Example 944]
EC50 (human GcgR): 1840 nM
EC50 (hGcgR): 6.16 nM
EC50 (hGLP-1R [1]): 4.86 nM
EC50 (hGIPR [2]): 37.2 nM
EC50 (hGIPR [3]): 0.216 nM
EC50 (hGLP-1R [4]): 985 nM

Y[Aib]QGTFTSD[4Pal]S[Orn][αMeL]LDKK([γGlu-γGlu-C18 diacid])AQ[αMe4Pal]AFIE[αMe4Pal]LIE[Aib]GPSSGEPPPSGS-NH2 [Example 989]
EC50 (human GcgR): 247 nM
EC50 (hGcgR): 2.27 nM
EC50 (hGLP-1R [1]): 3.92 nM
EC50 (hGIPR [2]): 8 nM
EC50 (hGIPR [3]): 0.103 nM
EC50 (hGLP-1R [4]): 402 nM

Y[Aib]QGTFTSD[4Pal]S[Orn][αMeL]LD[Orn]K([AEEA-γGlu-C18 diacid])AQ[Aib]AFIE[αMeY]LLEGGPSSGAPPPSGS-NH2 [Example 933]
EC50 (human GcgR): 1530 nM
EC50 (hGcgR): 5.51 nM
EC50 (hGLP-1R [1]): 2.32 nM
EC50 (hGIPR [2]): 35.1 nM
EC50 (hGIPR [3]): 0.259 nM
EC50 (hGLP-1R [4]): 557 nM

Y[Aib]QGTFTSD[4Pal]S[Orn][αMeL]LD[Orn]K([γGlu-γGlu-C18 diacid])AQ[αMe4Pal]AFIEYLIAGGPSSGAPPPSGSE-NH2 [Example 1011]
EC50 (human GcgR): 459 nM
EC50 (hGcgR): 5.27 nM
EC50 (hGLP-1R [1]): 2.13 nM
EC50 (hGIPR [2]): 13.5 nM
EC50 (hGIPR [3]): 0.21 nM
EC50 (hGLP-1R [4]): 148 nM

Y[Aib]QGTFTSD[4Pal]S[Orn][αMeL]LD[Orn]K([γGlu-γGlu-C18 diacid])AQ[αMe4Pal]QFIE[αMeY]LIEGGPSSGAPPPSGSEE-NH2 [Example 972]
EC50 (human GcgR): 660 nM
EC50 (hGcgR): 4.19 nM
EC50 (hGLP-1R [1]): 2.05 nM
EC50 (hGIPR [2]): 30.4 nM
EC50 (hGIPR [3]): 0.34 nM
EC50 (hGLP-1R [4]): 327 nM

Y[Aib]QGTFTSD[4Pal][αMeS]Q[αMeL]LD[Orn]K([dE-γGlu-C18 diacid])AQ[Iva]QFIQ[αMeY]LLE[Aib]GPSSGAPPPSGGGE-NH2 [Example 1139]
EC50 (human GcgR): 269 nM
EC50 (hGcgR): 5.29 nM
EC50 (hGLP-1R [1]): 1.85 nM
EC50 (hGIPR [2]): 2.87 nM
EC50 (hGIPR [3]): 0.0431 nM
EC50 (hGLP-1R [4]): 155 nM

Y[Aib]QGTFTSD[4Pal][αMeS]Q[αMeL]LD[Orn]K([dE-γGlu-C18 diacid])AQ[αMe4Pal]QFIQ[αMeY]LIEGGPSSGEPPPSGGGE-NH2 [Example 1188]
EC50 (human GcgR): 130 nM
EC50 (hGcgR): 1.16 nM
EC50 (hGLP-1R [1]): 1.01 nM
EC50 (hGIPR [2]): 7.02 nM
EC50 (hGIPR [3]): 0.0914 nM
EC50 (hGLP-1R [4]): 77.1 nM

Y[Aib]QGT[αMeF]TSD[4Pal][αMeS]I[αMeL]LD[Orn]K([AEEA-γGlu-C18 diacid])AQ[αMe4Pal]EFI[dE][αMeY]LIEGGPSSGAPPPSGGGE-NH2 [Example 1168]
EC50 (human GcgR): 364 nM
EC50 (hGcgR): 2.63 nM
EC50 (hGLP-1R [1]): 0.422 nM
EC50 (hGIPR [2]): 0.999 nM
EC50 (hGIPR [3]): 0.00839 nM
EC50 (hGLP-1R [4]): 65.4 nM

Y[Aib]QGT[αMeF]TSD[4Pal][αMeS]I[αMeL]LD[Orn]K([AEEA-γGlu-C18 diacid])AQ[αMe4Pal]EFI[dE][αMeY]LIEGGPSSGEPPPSGE-NH2 [Example 1165]
EC50 (human GcgR): 358 nM
EC50 (hGcgR): 2.68 nM
EC50 (hGLP-1R [1]): 0.632 nM
EC50 (hGIPR [2]): 1.36 nM
EC50 (hGIPR [3]): 0.0121 nM
EC50 (hGLP-1R [4]): 87.7 nM

Y[Aib]QGT[αMeF]TSD[4Pal][αMeS]I[αMeL]LD[Orn]K([AEEA-γGlu-C18 diacid])AQ[αMe4Pal]EFI[dE][αMeY]LIEGGPSSGEPPPSGGGE-NH2 [Example 1169]
EC50 (human GcgR): 304 nM
EC50 (hGcgR): 2.43 nM
EC50 (hGLP-1R [1]): 0.613 nM
EC50 (hGIPR [2]): 1.18 nM
EC50 (hGIPR [3]): 0.011 nM
EC50 (hGLP-1R [4]): 80 nM

Y[Aib]QGT[αMeF]TSD[4Pal][αMeS]I[αMeL]LD[Orn]K([γGlu-γGlu-C18 diacid])AQ[αMe4Pal]EFI[dE][αMeY]LIEGGPSSGAPPPSGGGE-NH2 [Example 1174]
EC50 (human GcgR): 347 nM
EC50 (hGcgR): 2.58 nM
EC50 (hGLP-1R [1]): 0.454 nM
EC50 (hGIPR [2]): 0.707 nM
EC50 (hGIPR [3]): 0.00896 nM
EC50 (hGLP-1R [4]): 60.2 nM

Y[Aib]QGT[αMePhe(2-F)]TSDYSILLDAQAAK([AEEA-γGlu-C20 diacid])EFIEYLIEGGPSSGEPPPSEG-NH2 [Example 351]
EC50 (human GcgR): 2470 nM
EC50 (hGcgR): 12.1 nM
EC50 (hGLP-1R [1]): 0.679 nM
EC50 (hGIPR [2]): 57.5 nM
EC50 (hGIPR [3]): 0.243 nM
EC50 (hGLP-1R [4]): 272 nM
